Measurements published in article PMC9325671, “Targeting LIPA independent of its lipase activity is a therapeutic strategy in solid tumors via induction of endoplasmic reticulum stress” (Nature Cancer, 2022).

Biological target: T1, lysosomal acid lipase (LAL, LIPA) (Homo sapiens, UniProt P38571)
T1 construct: endogenous LAL in SUM-159 cells (CETSA); WT-LIPA reconstituted in LIPA KO cells (pulldown)
T1 sequence (P38571 77-399): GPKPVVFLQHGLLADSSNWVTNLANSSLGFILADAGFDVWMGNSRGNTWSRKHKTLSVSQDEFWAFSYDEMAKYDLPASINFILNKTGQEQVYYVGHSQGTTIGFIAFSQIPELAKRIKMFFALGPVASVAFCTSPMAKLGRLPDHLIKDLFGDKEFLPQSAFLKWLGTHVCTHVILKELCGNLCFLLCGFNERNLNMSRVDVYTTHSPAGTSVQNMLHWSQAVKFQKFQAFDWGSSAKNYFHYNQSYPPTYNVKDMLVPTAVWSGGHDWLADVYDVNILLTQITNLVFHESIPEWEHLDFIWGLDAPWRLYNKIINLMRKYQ
Test: cellular thermal shift assay ([…] ERX-41) in SUM-159 cells; pulldown from lysates with biotinylated ERX-41
Assay type: cell-based

CC(C)COc1cc(C(=O)Nc2ccc(C(=O)N[C@H]3CC[C@H](C)CC3)cc2OCC(C)C)ccc1NC(=O)c1ccc([N+](=O)[O-])c(OCCO)c1 [ERX-41]
cellular thermal shift assay (10 uM ERX-41) in SUM-159 cells; pulldown from lysa: ERX-41 was able to stabilize LAL within the cell and shifted thermal sensitivity, suggesting that ERX-41 binds to LAL
